Measurements as given in patent publication US20120065228A1, “COMPOSITIONS AND METHODS FOR TREATING, CONTROLLING, REDUCING, OR AMELIORATING OCULAR INFLAMMATORY WITH LOWER RISK OF INCREASED INTRAOCULAR PRESSURE” (priority 2007, published 2012).

Assays:
myocilin mRNA = assay: Myocilin mRNA expression in monkey TM cells (qRT-PCR); type: cell-based, rhesus monkeys (Macaca mulatta)
Protocol: For each study, up to nine TM cell strains, each derived from an individual monkey, were tested separately. Cells were thawed and seeded into 12- or 48-well clusters (Falcon, BD Biosciences; 150,000 and 30,000 cells/well, respectively) in proliferation medium. When cells were 75% to 90% confluent proliferation medium was replaced by a 5:4 mixture of HESFM and Dulbecco's MEM, respectively, supplemented with 10% FBS, with added taurine, ascorbic acid phosphate, glutathione, and antibiotic as for proliferation medium (above), and with 2.72 g/L glucose and 1.72 g/L fructose. At confluence, the medium was changed to Dulbecco's MEM, containing 10% FBS^40, ascorbic acid phosphate, antibiotic, 2.72 g/L glucose and 1.72 g/L fructose. Cells were maintained as stable, confluent monolayers in this latter medium for 4 to 7 days before experimental treatments commenced.
After quantification of purified total RNA (Quant-iT RNA Assay kit, Molecular Probes, Eugene, Oreg.), equivalent amounts of this RNA were apportioned to generate first-strand cDNAs for each treatment sample, using random primers, (Affinity Script, Stratagene, La Jolla, Calif.). Oligonucleotide myocilin primers, designed based on the cynomolgus MYOC gene, and fluorescent Taqman probe (Applied Biosystems, Foster City, Calif.) were used for PCR amplification. Equal amounts of total RNA-equivalent mass (approximate range […]) reactant cDNA were added to the PCR Master Mix (Stratagene) and myocilin primers/Taqman probe. Amplification was performed in a thermocycler (Mx3005P, Stratagene), with an initial denaturation step at 95° C. for 10 min, followed by 40 cycles of 95° C. for 15 sec and 60° C. for 1 min for extension. Every run included standard controls (i.e., either without reverse transcriptase or lacking template). Relative quantities of myocilin mRNA abundance were determined using differences in threshold cycles (“Ct”) between vehicle control and drug treatments. Each sample was analyzed in triplicate wells, and the corresponding values averaged for further quantitative analysis. Myocilin mRNA abundance, expressed in proportion to vehicle control-treated samples, was calculated using the Mx3005P software.
Data underwent Box-Cox transformations for one- or two-way analysis of variance (ANOVA), followed by the Tukey-Kramer test, using JMP software (SAS, Cary, N.C.). The specific transformations used for analyses are mentioned in the figure legends. For each set of triplicate samples from the individual monkey TM cell strains tested, Western blot densitometry values for myocilin protein detected in CM (as geometric means), and relative abundance of myocilin mRNA (as geometric means), were plotted as a function of drug concentrations. P-values less than 0.05 were considered statistically significant. […]

[1] = tested on: intraocular pressure (IOP) in New Zealand White rabbits; assay: Intraocular pressure in New Zealand White rabbits, topical dosing four times daily; type: in vivo; details: for Intraocular Pressure, MEAN: A.M. readings
Protocol: On Days 1-31, animals received daily topical doses of the appropriate test article into the right eye. Animals were dosed four times per day, with doses administered 2 hours apart. Doses were administered using a calibrated 50-μL pipette. The eyelids were held close for 10 seconds immediately following dosing. The time of each dose administration was recorded.
Intraocular pressure (“IOP”) was determined for both eyes of each animal on Days 3, 5, 10, 12, 16, 18, 22, 24, 26, 30, and 32. LOP was evaluated with a Medtronic Solan, Model 30 classic pneumatonometer. Proparacaine hydrochloride 0.5% (1 drop) was delivered to each eye prior to IOP measurement. IOP was measured on Monday, Wednesday, and Friday of each week. A two-point diurnal curve was established: IOP was recorded at 8 a.m. and 12 p.m. on Day 3, and at 8 a.m. and 2 p.m. on later days, with a ±1 hour range for each of these times. The time of the measurements was recorded.
Descriptive statistics were prepared for IOP data of each treatment group (left and right eyes separately) at each measurement interval. The statistics included the number of observations (“N”), mean, standard deviation (“STD”), and standard error (“SEM”). Statistical analyses were conducted on IOP results using Statistical Analysis Systems (SAS Institute, Inc., Cary, N.C., V8.0). Parameters were evaluated using analysis of variance/GLM Procedure followed by Tukey's Standardized Range Test (Tukey, 1985) for post hoc comparisons of group means. The level of significance was set at a probability of p<0.05 for all statistical procedures. Group IOP means were compared at each interval, with left and right eyes compared separately.
IOP data for the following six animals were excluded from group statistics: Group A, Nos. 3081, 3037, 3068, and 3011; Group C, No. 3034; and Group E, No. 3084.

## Cc1ccc2c(NCC(O)(CC(C)(C)c3cc(F)cc4c3OCC4)C(F)(F)F)cccc2n1 (centres unmarked) [BOL-303242-X]
Myocilin mRNA; 300 nM, monkey TM cells
  Maximal efficacy for myocilin mRNA expression, relative to DEX: approximately 67%
Myocilin mRNA; Macaca mulatta, cultured monkey TM cells, weighted average, two dose-response studies each using two TM cell strains, read-out: EC50 ± SE, expression of myocilin mRNA
  EC50: 20.8 ± 2.74 nM
Myocilin mRNA; all doses, monkey TM cells
  Myocilin mRNA abundance compared with DEX: significantly lower mRNA abundance values
[1]; 1 mg/g BOL-303242-X (Group D), untreated left eyes, Day 3
  Intraocular Pressure, MEAN: 23.5 mmHg
[1]; 1 mg/g BOL-303242-X (Group D), untreated left eyes, Day 5
  Intraocular Pressure, MEAN: 24.4 mmHg
[1]; 1 mg/g BOL-303242-X (Group D), untreated left eyes, Day 10
  Intraocular Pressure, MEAN: 24.5 mmHg
[1]; 1 mg/g BOL-303242-X (Group D), untreated left eyes, Day 12
  Intraocular Pressure, MEAN: 22.2 mmHg
[1]; 1 mg/g BOL-303242-X (Group D), untreated left eyes, Day 16
  Intraocular Pressure, MEAN: 21.6 mmHg
[1]; 1 mg/g BOL-303242-X (Group D), untreated left eyes, Day 18
  Intraocular Pressure, MEAN: 23.3 mmHg
[1]; 1 mg/g BOL-303242-X (Group D), untreated left eyes, Day 22
  Intraocular Pressure, MEAN: 22.4 mmHg
[1]; 1 mg/g BOL-303242-X (Group D), untreated left eyes, Day 24
  Intraocular Pressure, MEAN: 22.4 mmHg
[1]; 1 mg/g BOL-303242-X (Group D), untreated left eyes, Day 26
  Intraocular Pressure, MEAN: 22.9 mmHg
[1]; 1 mg/g BOL-303242-X (Group D), untreated left eyes, Day 30
  Intraocular Pressure, MEAN: 23.4 mmHg
[1]; 1 mg/g BOL-303242-X (Group D), untreated left eyes, Day 32
  Intraocular Pressure, MEAN: 24.1 mmHg
[1]; 1 mg/g BOL-303242-X (Group D), untreated left eyes, Pre-Study
  Intraocular Pressure, MEAN: 23.9 mmHg
[1]; 5 mg/g BOL-303242-X (Group C), untreated left eyes, Day 3
  Intraocular Pressure, MEAN: 23.8 mmHg
[1]; 5 mg/g BOL-303242-X (Group C), untreated left eyes, Day 5
  Intraocular Pressure, MEAN: 24.4 mmHg
[1]; 5 mg/g BOL-303242-X (Group C), untreated left eyes, Day 10
  Intraocular Pressure, MEAN: 24.6 mmHg
[1]; 5 mg/g BOL-303242-X (Group C), untreated left eyes, Day 12
  Intraocular Pressure, MEAN: 23.8 mmHg
[1]; 5 mg/g BOL-303242-X (Group C), untreated left eyes, Day 16
  Intraocular Pressure, MEAN: 23.4 mmHg
[1]; 5 mg/g BOL-303242-X (Group C), untreated left eyes, Day 18
  Intraocular Pressure, MEAN: 21.9 mmHg
[1]; 5 mg/g BOL-303242-X (Group C), untreated left eyes, Day 22
  Intraocular Pressure, MEAN: 21.6 mmHg
[1]; 5 mg/g BOL-303242-X (Group C), untreated left eyes, Day 24
  Intraocular Pressure, MEAN: 22.1 mmHg
[1]; 5 mg/g BOL-303242-X (Group C), untreated left eyes, Day 26
  Intraocular Pressure, MEAN: 21.7 mmHg
[1]; 5 mg/g BOL-303242-X (Group C), untreated left eyes, Day 30
  Intraocular Pressure, MEAN: 22.6 mmHg
[1]; 5 mg/g BOL-303242-X (Group C), untreated left eyes, Day 32
  Intraocular Pressure, MEAN: 23.1 mmHg
[1]; 5 mg/g BOL-303242-X (Group C), untreated left eyes, Pre-Study
  Intraocular Pressure, MEAN: 24.2 mmHg
[1]; 10 mg/g BOL-303242-X (Group B), untreated left eyes, Day 3
  Intraocular Pressure, MEAN: 23.3 mmHg
[1]; 10 mg/g BOL-303242-X (Group B), untreated left eyes, Day 5
  Intraocular Pressure, MEAN: 23.4 mmHg
[1]; 10 mg/g BOL-303242-X (Group B), untreated left eyes, Day 10
  Intraocular Pressure, MEAN: 24.0 mmHg
[1]; 10 mg/g BOL-303242-X (Group B), untreated left eyes, Day 12
  Intraocular Pressure, MEAN: 23.8 mmHg
[1]; 10 mg/g BOL-303242-X (Group B), untreated left eyes, Day 16
  Intraocular Pressure, MEAN: 22.9 mmHg
[1]; 10 mg/g BOL-303242-X (Group B), untreated left eyes, Day 18
  Intraocular Pressure, MEAN: 21.2 mmHg
[1]; 10 mg/g BOL-303242-X (Group B), untreated left eyes, Day 22
  Intraocular Pressure, MEAN: 21.8 mmHg
[1]; 10 mg/g BOL-303242-X (Group B), untreated left eyes, Day 24
  Intraocular Pressure, MEAN: 20.2 mmHg
[1]; 10 mg/g BOL-303242-X (Group B), untreated left eyes, Day 26
  Intraocular Pressure, MEAN: 21.7 mmHg
[1]; 10 mg/g BOL-303242-X (Group B), untreated left eyes, Day 30
  Intraocular Pressure, MEAN: 22.7 mmHg
[1]; 10 mg/g BOL-303242-X (Group B), untreated left eyes, Day 32
  Intraocular Pressure, MEAN: 22.9 mmHg
[1]; 10 mg/g BOL-303242-X (Group B), untreated left eyes, Pre-Study
  Intraocular Pressure, MEAN: 23.8 mmHg
[1]; BOL-303242-X 1, 5, 10 mg/g suspensions
  Differences in mean IOP versus the BSS group: No statistically significant (p<0.05) differences
[1]; BOL-303242-X suspensions 0.05, 0.25 or 0.5 mg/dose, daily dosing up to 31 days
  IOP compared to daily dosing with dexamethasone: did not increase IOP
[1]; rabbits, right eye four times daily up to 31 days, dexamethasone 0.1%, BOL-303242-X 1, 5, 10 mg/g, left and right eyes
  Mean IOP after treatment began: This increase was not seen
[1]; treated right eyes, Day 3, 1 mg/g (Group D)
  Intraocular Pressure, MEAN: 23.0 mmHg
[1]; treated right eyes, Day 3, 5 mg/g (Group C)
  Intraocular Pressure, MEAN: 23.7 mmHg
[1]; treated right eyes, Day 3, 10 mg/g (Group B)
  Intraocular Pressure, MEAN: 22.7 mmHg
[1]; treated right eyes, Day 5, 1 mg/g (Group D)
  Intraocular Pressure, MEAN: 24.7 mmHg
[1]; treated right eyes, Day 5, 5 mg/g (Group C)
  Intraocular Pressure, MEAN: 24.7 mmHg
[1]; treated right eyes, Day 5, 10 mg/g (Group B)
  Intraocular Pressure, MEAN: 23.8 mmHg
[1]; treated right eyes, Day 10, 1 mg/g (Group D)
  Intraocular Pressure, MEAN: 24.8 mmHg
[1]; treated right eyes, Day 10, 5 mg/g (Group C)
  Intraocular Pressure, MEAN: 25.2 mmHg
[1]; treated right eyes, Day 10, 10 mg/g (Group B)
  Intraocular Pressure, MEAN: 24.5 mmHg
[1]; treated right eyes, Day 12, 1 mg/g (Group D)
  Intraocular Pressure, MEAN: 23.4 mmHg
[1]; treated right eyes, Day 12, 5 mg/g (Group C)
  Intraocular Pressure, MEAN: 25.0 mmHg
